# Key:
# P-gp (ABCB1) = P-gp (ABCB1) (Homo sapiens, UniProt P08183); experiment: Substrate activity at P-gp (unknown origin) assessed as efflux ratio; assay type: ADME; conditions: not told
# [1] = biological target: Dihydroorotate dehydrogenase (quinone), mitochondrial (Homo sapiens, UniProt Q02127); experiment: Inhibition of human DHODH in MOLM-13 AML cells; assay type: cell-based
# [2] = Intrinsic clearance in human liver microsomes; assay type: ADME, Microsome; conditions: read-out: CLH
# [3] = Permeability of compound in MDCK cells; assay type: ADME, cell-based, Canis lupus familiaris; conditions: dog, read-out: permeability
# MOLM-13 = experiment: Antiproliferative activity in human MOLM-13 AML cells assessed as reduction in cell viability incubated for 72 hrs by CellTiter-Glo assay; conditions: MOLM-13, 72 h
# [4] = Metabolic stability in human liver microsome assessed as half life; assay type: ADME; conditions: liver microsomes
# [5] = Metabolic stability in mouse liver microsome assessed as half life; assay type: ADME; conditions: liver microsomes
# [6] = Microsomal stability in human assessed as half-life; assay type: ADME, Microsome; conditions: microsomes
# [7] = Microsomal stability in mouse assessed as half-life; assay type: ADME, Microsome; conditions: microsomes
# [8] = Volume of distribution at steady state in C57 mouse at 10 mg/kg, po or 2 mg/kg, iv; assay type: ADME, organism-based; conditions: in vivo
# [9] = Half-life in C57 mouse at 10 mg/kg, po or 2 mg/kg, iv; assay type: ADME, organism-based; conditions: in vivo
# [10] = Clearance in iv dosed mouse assessed as hepatic blood flow; assay type: ADME, organism-based; conditions: in vivo
# [11] = Plasma protein binding in human assessed as free fraction; assay type: ADME, cell-free; conditions: read-out: PPB
# [12] = Plasma protein binding in mouse assessed as free fraction; assay type: ADME, cell-free; conditions: read-out: PPB
# [13] = Oral bioavailability in C57 mouse at 10 mg/kg; assay type: ADME, organism-based; conditions: in vivo
# Chain of P-gp (ABCB1) (P08183 whole entry): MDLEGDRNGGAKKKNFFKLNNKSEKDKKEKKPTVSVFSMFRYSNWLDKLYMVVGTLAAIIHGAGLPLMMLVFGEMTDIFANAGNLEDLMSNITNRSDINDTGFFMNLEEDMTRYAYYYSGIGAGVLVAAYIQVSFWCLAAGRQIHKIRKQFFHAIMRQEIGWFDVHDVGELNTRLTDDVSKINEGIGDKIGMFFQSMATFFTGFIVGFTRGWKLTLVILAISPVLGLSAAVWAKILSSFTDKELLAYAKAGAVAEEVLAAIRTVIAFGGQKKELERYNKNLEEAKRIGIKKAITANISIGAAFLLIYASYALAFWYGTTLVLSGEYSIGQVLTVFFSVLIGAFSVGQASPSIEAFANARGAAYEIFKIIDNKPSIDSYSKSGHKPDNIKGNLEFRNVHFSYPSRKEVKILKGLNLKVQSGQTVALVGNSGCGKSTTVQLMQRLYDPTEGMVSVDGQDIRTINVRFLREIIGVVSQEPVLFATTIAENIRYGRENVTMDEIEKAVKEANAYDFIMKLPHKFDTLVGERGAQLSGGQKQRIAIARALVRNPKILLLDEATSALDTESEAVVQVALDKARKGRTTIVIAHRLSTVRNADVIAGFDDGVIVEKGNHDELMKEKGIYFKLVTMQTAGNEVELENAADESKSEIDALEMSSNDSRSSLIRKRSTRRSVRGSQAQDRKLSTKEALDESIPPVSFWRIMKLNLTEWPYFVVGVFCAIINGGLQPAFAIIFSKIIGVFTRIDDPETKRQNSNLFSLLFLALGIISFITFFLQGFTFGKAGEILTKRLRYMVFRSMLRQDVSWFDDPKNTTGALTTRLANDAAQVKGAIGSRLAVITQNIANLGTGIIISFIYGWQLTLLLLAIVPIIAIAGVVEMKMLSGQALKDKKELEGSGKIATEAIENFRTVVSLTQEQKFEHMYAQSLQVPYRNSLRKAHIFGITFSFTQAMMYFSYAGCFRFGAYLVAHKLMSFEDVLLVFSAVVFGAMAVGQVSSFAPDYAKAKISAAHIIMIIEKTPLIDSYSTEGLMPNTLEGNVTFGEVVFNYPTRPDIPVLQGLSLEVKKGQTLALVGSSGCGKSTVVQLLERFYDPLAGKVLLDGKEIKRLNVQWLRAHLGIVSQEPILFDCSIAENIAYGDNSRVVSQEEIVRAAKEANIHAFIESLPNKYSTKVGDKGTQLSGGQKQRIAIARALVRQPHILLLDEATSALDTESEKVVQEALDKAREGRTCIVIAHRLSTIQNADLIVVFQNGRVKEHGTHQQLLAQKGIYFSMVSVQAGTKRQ
# Chain of Dihydroorotate dehydrogenase (quinone), mitochondrial (Q02127 whole entry): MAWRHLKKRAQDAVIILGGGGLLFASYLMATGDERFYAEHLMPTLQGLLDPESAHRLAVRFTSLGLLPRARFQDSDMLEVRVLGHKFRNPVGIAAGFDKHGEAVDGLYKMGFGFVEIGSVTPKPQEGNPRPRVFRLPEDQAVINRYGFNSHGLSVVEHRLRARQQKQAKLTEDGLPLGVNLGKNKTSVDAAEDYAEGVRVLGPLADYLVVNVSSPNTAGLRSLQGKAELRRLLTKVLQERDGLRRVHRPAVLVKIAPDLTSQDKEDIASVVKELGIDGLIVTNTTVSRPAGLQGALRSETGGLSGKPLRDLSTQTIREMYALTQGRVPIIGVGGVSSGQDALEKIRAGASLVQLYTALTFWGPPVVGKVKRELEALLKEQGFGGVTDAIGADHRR
IC50 (MOLM-13),half-life [4],half-life [5],SMILES,also measured
,,,CCn1c(CO)nn(-c2nc(O[C@@H](C)C(F)(F)F)c(C(=O)Nc3c(F)cccc3Cl)cc2F)c1=O,efflux ratio (P-gp (ABCB1)): > 30; IC50 [1]: 0.24 nM
,,,CCn1c(CO)nn(-c2nc(O[C@@H](C)C(F)(F)F)c(C(=O)Nc3c(C)cnc(OC)c3Cl)cc2F)c1=O,efflux ratio (P-gp (ABCB1)): > 30; CLint scaled [2]: < 7.7 mL/min/kg; Papp [3]: 27 ×10⁻⁶ cm/s
430 nM,142 min,178 min,C[C@H](Oc1cc(NC(=O)N2CC(CO)C2)c(F)cc1C(=O)Nc1c(F)cccc1Cl)C(F)(F)F,
53 nM,,,CCNC(=O)Nc1cc(O[C@@H](C)C(F)(F)F)c(C(=O)Nc2c(F)cccc2Cl)cc1F,
370 nM,,,CC(=O)Nc1cc(O[C@@H](C)C(F)(F)F)c(C(=O)Nc2c(F)cccc2Cl)cc1F,
46 nM,,,CCCC(=O)Nc1cc(O[C@@H](C)C(F)(F)F)c(C(=O)Nc2c(F)cccc2Cl)cc1F,half-life [6]: 31 min; half-life [7]: < 4 min
11 nM,,,COCC1CCCN1C(=O)Nc1cc(O[C@@H](C)C(F)(F)F)c(C(=O)Nc2c(F)cccc2Cl)cc1F (stereo partly specified),
53 nM,,,CCC(CC)C(=O)Nc1cc(O[C@@H](C)C(F)(F)F)c(C(=O)Nc2c(F)cccc2Cl)cc1F,
2 nM,22 min,< 4 min,C[C@H](Oc1cc(NC(=O)N(C)C)c(F)cc1C(=O)Nc1c(F)cccc1Cl)C(F)(F)F,
1 nM,50 min,20 min,CCN(C(=O)Nc1cc(O[C@@H](C)C(F)(F)F)c(C(=O)Nc2c(F)cccc2Cl)cc1F)C1CC1,
1.3 nM,,,C[C@H](Oc1cc(NC(=O)N2CCCC2)c(F)cc1C(=O)Nc1c(F)cccc1Cl)C(F)(F)F,
0.82 nM,21 min,< 4 min,CCN(C)C(=O)Nc1cc(O[C@@H](C)C(F)(F)F)c(C(=O)Nc2c(F)cccc2Cl)cc1F,
0.63 nM,26 min,12 min,CCN(CC)C(=O)Nc1cc(O[C@@H](C)C(F)(F)F)c(C(=O)Nc2c(F)cccc2Cl)cc1F,
64 nM,,,CC/C(=C\CO)C(=O)Nc1cc(O[C@@H](C)C(F)(F)F)c(C(=O)Nc2c(F)cccc2Cl)cc1F,
55 nM,,,C[C@H](Oc1cc(NC(=O)C2CC2)c(F)cc1C(=O)Nc1c(F)cccc1Cl)C(F)(F)F,
206 nM,,,CCC(CCO)C(=O)Nc1cc(O[C@@H](C)C(F)(F)F)c(C(=O)Nc2c(F)cccc2Cl)cc1F (stereo partly specified),
4.3 nM,,,C[C@H](Oc1cc(NC(=O)N2CCC(F)(F)C2)c(F)cc1C(=O)Nc1c(F)cccc1Cl)C(F)(F)F,
35 nM,,,CCC(=O)Nc1cc(O[C@@H](C)C(F)(F)F)c(C(=O)Nc2c(F)cccc2Cl)cc1F,
25 nM,< 4 min,< 4 min,CCN(CC)C(=O)N(C)c1cc(O[C@@H](C)C(F)(F)F)c(C(=O)Nc2c(F)cccc2Cl)cc1F,
1.5 nM,56 min,45 min,C[C@H](Oc1cc(NC(=O)N2CCCC2CO)c(F)cc1C(=O)Nc1c(F)cccc1Cl)C(F)(F)F (mixture of isomers),
1.6 nM,28 min,15 min,C[C@H](Oc1cc(NC(=O)N2CCC2CO)c(F)cc1C(=O)Nc1c(F)cccc1Cl)C(F)(F)F (mixture of isomers),
0.92 nM,62 min,106 min,C[C@H](Oc1cc(NC(=O)N2C(=O)CCC2CO)c(F)cc1C(=O)Nc1c(F)cccc1Cl)C(F)(F)F (mixture of isomers),Vdss [8]: 3.6 L/kg; half-life [9]: 180 min; QH [10]: ~ 20%; fraction unbound [11]: 0.012; fraction unbound [12]: 0.007; bioavailability [13]: > 100%
